PubChem BioAssay AID1919014 (Molecular Pharmacology Branch, DTP, NCI, 2023)

System: NCI-H1341 complex spheroids, percent test/control
Experiment: Anticancer human tumor NCI-H1341 cell line growth inhibition [AhR];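 also: spheroids exposed to agents for seven days before readout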
Settings: for IC50: curve of first compound; for viability, T/C: stronger effect = lower value
Procedure, shortened: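 Spheroids combined tumor cells with HUVEC endothelial cells and human MSCs as stroma. AhR antagonists were paired with standard or investigational drugs, each dosed in half-log steps down from near clinical Cmax, or from 10 microM where Cmax was unknown.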

[1] = second compound 0.1 µM, first compound 0.0316 µM
[2] = second compound 0.1 µM, first compound 0.1 µM
[3] = second compound 0.1 µM, first compound 0.316 µM
[4] = second compound 0.1 µM, first compound 1 µM
[5] = second compound 0.316 µM, first compound 0.0316 µM
[6] = second compound 0.316 µM, first compound 0.1 µM
[7] = second compound 0.316 µM, first compound 0.316 µM
[8] = second compound 0.316 µM, first compound 1 µM
[9] = second compound 1 µM, first compound 0.0316 µM
[10] = second compound 1 µM, first compound 0.1 µM
[11] = second compound 1 µM, first compound 0.316 µM
[12] = second compound 1 µM, first compound 1 µM
[13] = second compound 3.16 µM, first compound 0.0316 µM
[14] = second compound 3.16 µM, first compound 0.1 µM
[15] = second compound 3.16 µM, first compound 0.316 µM
[16] = second compound 3.16 µM, first compound 1 µM
[17] = second compound 10 µM, first compound 0.0316 µM
[18] = second compound 10 µM, first compound 0.1 µM
[19] = second compound 10 µM, first compound 0.316 µM
[20] = second compound 10 µM, first compound 1 µM
[21] = second compound 0.1 µM, first compound 0.00949 µM
[22] = second compound 0.1 µM, first compound 0.03 µM
[23] = second compound 0.1 µM, first compound 0.0949 µM
[24] = second compound 0.1 µM, first compound 0.3 µM
[25] = second compound 0.1 µM, first compound 0.949 µM
[26] = second compound 0.1 µM, first compound 3 µM
[27] = second compound 0.316 µM, first compound 0.00949 µM
[28] = second compound 0.316 µM, first compound 0.03 µM
[29] = second compound 0.316 µM, first compound 0.0949 µM
[30] = second compound 0.316 µM, first compound 0.3 µM
[31] = second compound 0.316 µM, first compound 0.949 µM
[32] = second compound 0.316 µM, first compound 3 µM
[33] = second compound 1 µM, first compound 0.00949 µM
[34] = second compound 1 µM, first compound 0.03 µM
[35] = second compound 1 µM, first compound 0.0949 µM
[36] = second compound 1 µM, first compound 0.3 µM
[37] = second compound 1 µM, first compound 0.949 µM
[38] = second compound 1 µM, first compound 3 µM
[39] = second compound 3.16 µM, first compound 0.00949 µM
[40] = second compound 3.16 µM, first compound 0.03 µM
[41] = second compound 3.16 µM, first compound 0.0949 µM
[42] = second compound 3.16 µM, first compound 0.3 µM
[43] = second compound 3.16 µM, first compound 0.949 µM
[44] = second compound 3.16 µM, first compound 3 µM
[45] = second compound 10 µM, first compound 0.00949 µM
[46] = second compound 10 µM, first compound 0.03 µM
[47] = second compound 10 µM, first compound 0.0949 µM
[48] = second compound 10 µM, first compound 0.3 µM
[49] = second compound 10 µM, first compound 0.949 µM
[50] = second compound 10 µM, first compound 3 µM

CC1COCCN1c1cc(-c2ccnn2C)c2ccnc(-c3ccn[nH]3)c2n1 (stereo not given) + CC(CO)NC(=O)c1cc(-c2ccc(Cl)cc2)nn(-c2cnn(C)c2)c1=O
IC50 (second compound 0.1 µM): 45.8 nM
IC50 (second compound 0.316 µM): 34.3 nM
IC50 (second compound 1 µM): 24.8 nM
IC50 (second compound 3.16 µM): 25.3 nM
IC50 (second compound 10 µM): 16.8 nM
viability, T/C (second compound 0.1 µM, first compound 0.00316 µM): 87.6%
viability, T/C (second compound 0.1 µM, first compound 0.01 µM): 77.6%
viability, T/C [1]: 61.2%
viability, T/C [2]: 28.6%
viability, T/C [3]: 20.5%
viability, T/C [4]: 20.2%
viability, T/C (second compound 0.316 µM, first compound 0.00316 µM): 96.4%
viability, T/C (second compound 0.316 µM, first compound 0.01 µM): 73.6%
viability, T/C [5]: 54.5%
viability, T/C [6]: 29.7%
viability, T/C [7]: 23.8%
viability, T/C [8]: 18.2%
viability, T/C (second compound 1 µM, first compound 0.00316 µM): 90.2%
viability, T/C (second compound 1 µM, first compound 0.01 µM): 72.3%
viability, T/C [9]: 44.6%
viability, T/C [10]: 25.3%
viability, T/C [11]: 22.7%
viability, T/C [12]: 19.2%
viability, T/C (second compound 3.16 µM, first compound 0.00316 µM): 84.3%
viability, T/C (second compound 3.16 µM, first compound 0.01 µM): 77.3%
viability, T/C [13]: 43.1%
viability, T/C [14]: 24.6%
viability, T/C [15]: 23.7%
viability, T/C [16]: 17.8%
viability, T/C (second compound 10 µM, first compound 0.00316 µM): 71.2%
viability, T/C (second compound 10 µM, first compound 0.01 µM): 64%
viability, T/C [17]: 33%
viability, T/C [18]: 21.6%
viability, T/C [19]: 22.2%
viability, T/C [20]: 17.8%

CC1COCCN1c1cc(C2(S(C)(=N)=O)CC2)nc(-c2ccnc3[nH]ccc23)n1 (stereo not given) + CC(CO)NC(=O)c1cc(-c2ccc(Cl)cc2)nn(-c2cnn(C)c2)c1=O
IC50 (second compound 0.1 µM): 1600 nM
IC50 (second compound 0.316 µM): 1090 nM
IC50 (second compound 1 µM): 1540 nM
IC50 (second compound 3.16 µM): 1490 nM
IC50 (second compound 10 µM): 956 nM
viability, T/C [1]: 89.6%
viability, T/C [2]: 83.2%
viability, T/C [3]: 96.7%
viability, T/C [4]: 64.9%
viability, T/C (second compound 0.1 µM, first compound 3.16 µM): 29.7%
viability, T/C (second compound 0.1 µM, first compound 10 µM): 21.9%
viability, T/C [5]: 78.8%
viability, T/C [6]: 93.5%
viability, T/C [7]: 70.1%
viability, T/C [8]: 51.1%
viability, T/C (second compound 0.316 µM, first compound 3.16 µM): 32.4%
viability, T/C (second compound 0.316 µM, first compound 10 µM): 20.4%
viability, T/C [9]: 77.3%
viability, T/C [10]: 88.5%
viability, T/C [11]: 88.4%
viability, T/C [12]: 57.1%
viability, T/C (second compound 1 µM, first compound 3.16 µM): 35.5%
viability, T/C (second compound 1 µM, first compound 10 µM): 19.6%
viability, T/C [13]: 95.8%
viability, T/C [14]: 86.3%
viability, T/C [15]: 87.8%
viability, T/C [16]: 58.6%
viability, T/C (second compound 3.16 µM, first compound 3.16 µM): 31.7%
viability, T/C (second compound 3.16 µM, first compound 10 µM): 17.6%
viability, T/C [17]: 83.2%
viability, T/C [18]: 84.9%
viability, T/C [19]: 67.9%
viability, T/C [20]: 52.1%
viability, T/C (second compound 10 µM, first compound 3.16 µM): 24.8%
viability, T/C (second compound 10 µM, first compound 10 µM): 18.8%

CCN(c1cc(-c2ccc(CN3CCOCC3)cc2)cc(C(=O)NCc2c(C)cc(C)[nH]c2=O)c1C)C1CCOCC1 + CC(CO)NC(=O)c1cc(-c2ccc(Cl)cc2)nn(-c2cnn(C)c2)c1=O
IC50 (second compound 0.1 µM): > 3000 nM
IC50 (second compound 0.316 µM): > 3000 nM
IC50 (second compound 1 µM): > 3000 nM
IC50 (second compound 3.16 µM): > 3000 nM
IC50 (second compound 10 µM): > 3000 nM
viability, T/C [21]: 89.1%
viability, T/C [22]: 72.4%
viability, T/C [23]: 84%
viability, T/C [24]: 68.1%
viability, T/C [25]: 75.2%
viability, T/C [26]: 57.6%
viability, T/C [27]: 81.9%
viability, T/C [28]: 77%
viability, T/C [29]: 77.9%
viability, T/C [30]: 65.8%
viability, T/C [31]: 65.7%
viability, T/C [32]: 59.7%
viability, T/C [33]: 91.7%
viability, T/C [34]: 73.6%
viability, T/C [35]: 78%
viability, T/C [36]: 63%
viability, T/C [37]: 63.1%
viability, T/C [38]: 62%
viability, T/C [39]: 84.1%
viability, T/C [40]: 82.5%
viability, T/C [41]: 74.9%
viability, T/C [42]: 71.4%
viability, T/C [43]: 61.9%
viability, T/C [44]: 62.4%
viability, T/C [45]: 67.5%
viability, T/C [46]: 79.2%
viability, T/C [47]: 73.3%
viability, T/C [48]: 70.4%
viability, T/C [49]: 65.7%
viability, T/C [50]: 57.4%

Nc1ncn(C2CC(O)C(CO)S2)c(=O)n1 (stereo not given) + CC(CO)NC(=O)c1cc(-c2ccc(Cl)cc2)nn(-c2cnn(C)c2)c1=O
IC50 (second compound 0.1 µM): 271 nM
IC50 (second compound 0.316 µM): 220 nM
IC50 (second compound 1 µM): 223 nM
IC50 (second compound 3.16 µM): 214 nM
IC50 (second compound 10 µM): 234 nM
viability, T/C (second compound 0.1 µM, first compound 0.000949 µM): 89.1%
viability, T/C (second compound 0.1 µM, first compound 0.003 µM): 94.3%
viability, T/C [21]: 91.2%
viability, T/C [22]: 89.3%
viability, T/C [23]: 63.6%
viability, T/C [24]: 48.7%
viability, T/C (second compound 0.316 µM, first compound 0.000949 µM): 94.6%
viability, T/C (second compound 0.316 µM, first compound 0.003 µM): 91.5%
viability, T/C [27]: 84.5%
viability, T/C [28]: 89.8%
viability, T/C [29]: 78.3%
viability, T/C [30]: 39.2%
viability, T/C (second compound 1 µM, first compound 0.000949 µM): 75.3%
viability, T/C (second compound 1 µM, first compound 0.003 µM): 105%
viability, T/C [33]: 91.8%
viability, T/C [34]: 79.6%
viability, T/C [35]: 76.2%
viability, T/C [36]: 41.3%
viability, T/C (second compound 3.16 µM, first compound 0.000949 µM): 86%
viability, T/C (second compound 3.16 µM, first compound 0.003 µM): 96.1%
viability, T/C [39]: 85.6%
viability, T/C [40]: 82.7%
viability, T/C [41]: 69.2%
viability, T/C [42]: 42%
viability, T/C (second compound 10 µM, first compound 0.000949 µM): 73.3%
viability, T/C (second compound 10 µM, first compound 0.003 µM): 73.1%
viability, T/C [45]: 79.1%
viability, T/C [46]: 69.2%
viability, T/C [47]: 63.6%
viability, T/C [48]: 46%

O=C(C=Cn1cnc(-c2cc(C(F)(F)F)cc(C(F)(F)F)c2)n1)NNc1cnccn1 + CC(CO)NC(=O)c1cc(-c2ccc(Cl)cc2)nn(-c2cnn(C)c2)c1=O
IC50 (second compound 0.1 µM): 47.3 nM
IC50 (second compound 0.316 µM): 38.7 nM
IC50 (second compound 1 µM): 53.4 nM
IC50 (second compound 3.16 µM): 39.2 nM
IC50 (second compound 10 µM): 32.2 nM
viability, T/C [21]: 70.1%
viability, T/C [22]: 66%
viability, T/C [23]: 25.8%
viability, T/C [24]: 8.14%
viability, T/C [25]: 7.31%
viability, T/C [26]: 3.24%
viability, T/C [27]: 81.5%
viability, T/C [28]: 56.4%
viability, T/C [29]: 26.9%
viability, T/C [30]: 8.82%
viability, T/C [31]: 4.72%
viability, T/C [32]: 3.56%
viability, T/C [33]: 72.9%
viability, T/C [34]: 76.5%
viability, T/C [35]: 25.3%
viability, T/C [36]: 7.32%
viability, T/C [37]: 5.36%
viability, T/C [38]: 3.2%
viability, T/C [39]: 70.9%
viability, T/C [40]: 56.6%
viability, T/C [41]: 27.3%
viability, T/C [42]: 7.55%
viability, T/C [43]: 4.07%
viability, T/C [44]: 4.94%
viability, T/C [45]: 62.8%
viability, T/C [46]: 51%
viability, T/C [47]: 27.2%
viability, T/C [48]: 8.24%
viability, T/C [49]: 5.11%
viability, T/C [50]: 4.13%
